Assay results: publication PMC8315922, “In Vitro Identification and In Vivo Confirmation of Inhibitors for Sweet Potato Chlorotic Stunt Virus RNA Silencing Suppressor, a Viral RNase III” (Journal of Virology, 2021)
Read-outs that look alike come from different tables or passages of the source.

Legend:
[1] = target: RNase III of Sweet potato chlorotic stunt virus (CSR3), His-tagged full-length (Sweet potato chlorotic stunt virus (SPCSV)); experiment: native gel or EMSA; native Western blotting of purified CSR3, detected with rabbit polyclonal antibodies against CSR3; monomer to dimer
[2] = target: T1, CSR3 (RNase III of SPCSV) (Sweet potato chlorotic stunt virus, UniProt Q8JJW8); experiment: Kinetic-based HTS (FRET, labeled 22-bp siRNA cleavage), one concentration; format: biochemical; settings: compound 10 μM, 375 nM siRNA, 37°C
Description: Based on the catalytic activity of CSR3 on 22-bp siRNA, our kinetic-based HTS assay was designed using distance-dependent FRET technology. Specifically, one strand of siRNA, as a substrate, was labeled with a fluorescent dye (6-carboxyfluorescein [FAM]) at the 5′ end and a quencher (black hole quencher 1 [BHQ1]) at the 3′ end. The initial reaction rate of CSR3 was quantified using the slope of raw fluorescence under an excitation/emission spectrum at 485/520 nm (Fig. 3A). […] In this study, a total of 6,622 compounds (including 6,400 selected from Glide docking and 222 empirically selected compounds for preliminary assay setup) were screened using kinetic-based HTS at a final concentration of 10 μM. All 384-well screening plates contained 32 negative (with CSR3 [i.e., the substrate was successfully cleaved]) and 32 positive (without CSR3 [i.e., the substrate remained intact]) control reaction mixtures. To evaluate the quality of the HTS assay, the Z-factor (Z′) parameter was calculated using the reaction rates of the positive and negative controls ([30]). […]
The HTS assay was designed based on FRET using a 22-bp siRNA (forward sequence, […]; reverse sequence, […]) with a 2-nucleotide (nt) 3′ overhang labeled with the fluorescent dye 6-carboxyfluorescein (FAM) and a black hole quencher (BHQ1) on the sense strand (Metabion, Munich, Germany). […] The plates were read with a PHERAstar FS reader (BMG Labtech, Ortenberg, Germany).
(§1) For HTS, the activity of CSR3 was calculated by measuring the change in fluorescence as a function of the reaction time using MARS Data Analysis software (BMG Labtech). To evaluate the CSR3 inhibition efficiency of individual compounds, the PI of each compound was calculated using the slope values for the sample, positive control, and negative control according to the following equation: PI = 100 × [1 − (sample − positive)/(negative − positive)]%. IC50 and DSS values were calculated using concentration-specific PI values according to a previous study ([31]). Relative gene expression was calculated using the classical 2^−ΔΔ^CT method ([63]).

[3] = target: T1, CSR3 (RNase III of SPCSV); experiment: Kinetic-based FRET dose-response assay (IC50, DSS); format: biochemical; settings: for IC50: 1.25 nM to 50 μM, unit inferred
Experimental: A dose-response assay with six concentrations (1.25 nM to 50 μM) was carried out in three independent experiments, which included two tests with the 112 selected FIMM compounds (i.e., compounds prepared by the HTB-FIMM) and one test using the newly ordered commercial compounds (99 of the 112 compounds, i.e., compounds prepared by a second supplier). A dose-response curve was generated for each compound based on PI values as a function of the concentration.
The HTS assay was designed based on FRET using a 22-bp siRNA (forward sequence, […]; reverse sequence, […]) with a 2-nucleotide (nt) 3′ overhang labeled with the fluorescent dye 6-carboxyfluorescein (FAM) and a black hole quencher (BHQ1) on the sense strand (Metabion, Munich, Germany). Screening was initially carried out at one concentration (10 μM) in a 20-μl reaction buffer. […] All reaction mixtures contained 50 nM CSR3 and 375 nM labeled siRNA in 384-well black flat-bottom microplates (Corning, NY, USA) and were prepared using a BioTek MultiFlo FX dispenser with single-channel random access dispenser cassettes (BioTek, Winooski, VT, USA). The plates were read with a PHERAstar FS reader (BMG Labtech, Ortenberg, Germany).
as §1

CSR3 [4] = target: T2, CSR3 (Sweet potato chlorotic stunt virus, UniProt Q8JJW8); experiment: Binding affinity assay using MST; settings: Table S4
T2 sequence (Q8JJW8 1-228): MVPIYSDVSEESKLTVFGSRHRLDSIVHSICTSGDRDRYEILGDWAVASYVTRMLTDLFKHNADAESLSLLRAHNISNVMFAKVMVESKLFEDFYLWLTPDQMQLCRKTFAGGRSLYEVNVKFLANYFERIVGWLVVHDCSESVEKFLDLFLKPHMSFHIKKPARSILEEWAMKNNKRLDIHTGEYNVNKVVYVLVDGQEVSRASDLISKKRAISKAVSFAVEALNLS
Experimental: (§2) Binding affinity assays were first carried out with the 99 commercial compounds using the MST method.
The labeled-protein solution containing 500 nM proteins and 40 nM dye was prepared in PBS buffer with 2% dimethyl sulfoxide (DMSO) for the assay. The 12 concentrations for each compound were obtained by 2-fold serial dilutions (0.2 μM to 400 μM). […] Two independent experiments were carried out in premium coated capillaries (NanoTemper, Munich, Germany) using a Monolith NT.Automated instrument (NanoTemper) with the power set at high (80%), the light-emitting diode (LED) power (pico red) set at 5%, and the on-time set at 20 s. The dissociation constant (Kd) was determined using the MO.Affinity Analysis program (NanoTemper).

CSR3 [5] = target: T2, CSR3; experiment: Binding affinity assay using SPR; settings: SPR dose-response 3 μM to 200 μM, 25°C; unit inferred, numbers match M (cf. Fig 5A); read-out: Steady State Affinity
Experimental: as §2
CSR3 was purified as described above and stored in PBS buffer. SPR was performed on a BiacoreT100 instrument (GE Healthcare) using a sensor S CM5 chip (GE Healthcare). CSR3 (10 ng/μl) was immobilized using the standard amine-coupling method according to the manufacturer’s instructions with immobilization buffer (10 mM sodium acetate [pH 4]); the final response unit (RU) value was 11,459. Compounds at a single concentration (100 μM) or consisting of 2-fold serial dilutions (3 μM to 200 μM) were flowed over the sensor surface using PBS buffer with 0.01 M HEPES, 0.05% surfactant P20, and 2% DMSO. […] To eliminate bulk interference by DMSO, a solvent correction consisting of DMSO at concentrations ranging from 1.5% to 2.8% was carried out for every 30 samples. Steady-state affinity (KD) values were determined using BiacoreT100 Evaluation software, v.2.04 (GE Healthcare).

Molecule | stoichiometry N [1] | PI values (percentage of inhibition) [2] [%] | DSS Comm 1 ([3]; drug sensitivity score, repeat Comm 1) | DSS FIMM1 ([3]; drug sensitivity score, repeat FIMM 1) | DSS FIMM 2 ([3]; drug sensitivity score, repeat FIMM 2) | IC50 ([3]; repeat Comm 1 (commercial compounds), numbers match nM, read-out: IC50 Comm 1) [nM] | IC50 ([3]; repeat FIMM 1 (FIMM library compounds), numbers match nM (cf. Fig 5A), read-out: IC50 FIMM1) [nM] | IC50 ([3]; repeat FIMM 2 (FIMM library compounds), numbers match nM, read-out: IC50 FIMM 2) [nM] | Binding (Yes/No) (CSR3 [4]; MST binding call) | Response Amplitude (CSR3 [4]; MST response amplitude) | Kd (CSR3 [5]) [µM]
RNase III of Sweet potato chlorotic stunt virus (CSR3), His-tagged full-length (enzyme) | 2 | – | – | – | – | – | – | – | – | – | –
Cc1ccc(C)c(C(=O)CSc2nnc[nH]2)c1 [FIMM027745] | – | 98.0616 | 1.9 | 19.2 | 16.7 | 14900 | 647 | 1120 | No | 0 | 13
